Structures are written as SMILES. Active and inactive are the calls of the source. The rule behind the calls is not given here.

In general, IC50 refers to the concentration needed to halve the response being measured. Read a high IC50 as a need for much substance.

For the test, the system named is MCF7. Put plainly: Cytotoxicity against human MCF7 cells after 48 hrs by SRB assay. The format is functional, cell-based.
As for `CCOc1ccc2nc(C)cc(Nc3cccc(O)c3)c2c1`, the IC50 was 2.84 µM.
Consider `CCOc1ccc2nc(C)cc(Nc3cc(OC)c(OC)cc3C(=O)OC)c2c1`, for which the IC50 stood at 1.67 µM.
`CCOc1ccc2nc(C)cc(N3CCN(C(=O)c4ccco4)CC3)c2c1` registered an IC50 of 4.31 µM.
Molecule `CCOc1ccc2nc(C)cc(Nc3ccc(S(=O)(=O)Nc4cc(C)on4)cc3)c2c1` gave an IC50 of 13.8 µM.
`COc1cc2nc(Cl)nc(N3CCN(S(=O)(=O)c4ccc(C)cc4)CC3)c2cc1OC` showed an IC50 of 1.08 µM.
`CCOc1ccc2nc(C)cc(Nc3ccc(S(=O)(=O)Nc4ncccn4)cc3)c2c1` showed an IC50 of 3.96 µM.
Same read-out and setting: then `COc1cc2nc(Cl)nc(Nc3ccc(S(=O)(=O)Nc4cc(C)on4)cc3)c2cc1OC`, with 1.98 µM.
For the molecule `CCOc1ccc2nc(C)cc(Nc3ccc(S(=O)(=O)Nc4nccs4)cc3)c2c1`, the outcome was inactive.
Turning to `CCOc1ccc2nc(C)cc(Nc3ccc(Cl)cc3Cl)c2c1`, the IC50 was determined as 4.38 µM.
`CCOc1ccc2nc(C)cc(Nc3ccc(S(=O)(=O)NC(=N)N)cc3)c2c1` showed an IC50 of 19.2 µM.
Turning to `COc1cc2nc(Cl)nc(Nc3ccc(S(=O)(=O)Nc4nccs4)cc3)c2cc1OC`, the IC50 was determined as 0.13 µM.

The values above are taken from ChEMBL document CHEMBL1156618, “Design, synthesis and in vitro antitumor activity of 4-aminoquinoline and 4-aminoquinazoline derivatives targeting EGFR tyrosine kinase” (Bioorg Med Chem, 2008).
